Reference: US8183236B2, “Compounds with HIV-1 integrase inhibitory activity and use thereof as anti-HIV/AIDS therapeutics” (University of Southern California, priority 2007, dated 2012)

Columns and labels:
[1] = target: T1, HIV-1 integrase (wild-type IN) (Human immunodeficiency virus type 1 group M subtype B, UniProt P12497); assay: HIV-1 integrase strand transfer assay (32P-labeled 21-mer, gel); type: biochemical
Excerpt: (§1) The oligonucleotides 21 top, 5′-[…]-3′ (SEQ ID NO:1) and 21 bot, 5′-[…]-3′ (SEQ ID NO:2) were purchased from Norris Cancer Center Core Facility (University of Southern California) and purified by UV shadowing on polyacrylamide gel. To analyze the extent of 3′-processing and strand transfer using 5′-end labeled substrates, 21 top was 5′-end labeled using T4 polynucleotide kinase (Epicentre, Madison, Wis.) and γ [^32P]-ATP (Amersham Biosciences or ICN). The kinase was heat-inactivated and 21 bot was added in 1.5-molar excess. The mixture was heated at 95° C., allowed to cool slowly to room temperature, and run through a spin 25 mini-column (USA Scientific) to separate annealed double-stranded oligonucleotide from unincorporated material.
(§2) To determine the extent of 3′-processing and strand transfer, wild-type IN was preincubated at a final concentration of 200 nM with the inhibitor in reaction buffer (50 mM NaCl, 1 mM HEPES, pH 7.5, 50 μM EDTA, 50 μM dithiothreitol, 10% glycerol (w/v), 7.5 mM MnCl2, 0.1 mg/ml bovine serum albumin, 10 mM 2-mercaptoethanol, 10% dimethyl sulfoxide, and 25 mM MOPS, pH 7.2) at 30° C. for 30 min. Then, 20 nM of the 5′-end ^32P-labeled linear oligonucleotide substrate was added, and incubation was continued for an additional one hour. Reactions were quenched by the addition of an equal volume (16 μl) of loading dye (98% deionized formamide, 10 mM EDTA, 0.025% xylene cyanol and 0.025% bromophenol blue). An aliquot (5 μl) was electrophoresed on a denaturing 20% polyacrylamide gel (0.09 M tris-borate pH 8.3, 2 mM EDTA, 20% acrylamide, 8M urea).
(§3) Gels were dried, exposed in a PhosphorImager cassette, and analyzed using a Typhoon 8610 Variable Mode Imager (Amersham Biosciences) and quantitated using ImageQuant 5.2. Percent inhibition (% I) was calculated using the following equation: %I=100×[1−(D−C)/(N−C)]
(§4) where C, N, and D are the fractions of 21-mer substrate converted to 19-mer (3′-processing product) or strand transfer products for DNA alone, DNA plus IN, and IN plus drug, respectively. The IC50 values were determined by plotting the logarithm of drug concentration versus percent inhibition to obtain concentration that produced 50% inhibition. […]

[2] = target: T1, HIV-1 integrase (wild-type IN); assay: HIV-1 integrase 3′-processing assay (32P-labeled 21-mer, gel); type: biochemical
Excerpt: as §1, §2, §3, §4

[3] = Table 54, read-out: IN inhibition activity Strand transfer
[4] = Table 54, read-out: IN inhibition activity 3′-processing
[5] = unit inferred, read-out: HIV-1 IN Inhibitory Activities Strand transfer
[6] = unit inferred, read-out: HIV-1 IN Inhibitory Activities 3′-processing
[7] = Table 53, structurally diverse compounds, read-out: IN inhibition activity Strand transfer
[8] = Table 53, structurally diverse compounds, read-out: IN inhibition activity 3′-processing
[9] = unit inferred, read-out: IN inhibition activity Strand transfer
[10] = unit inferred, read-out: IN inhibition activity 3′-processing
[11] = wild-type IN 200 nM, 7.5 mM MnCl2, read-out: Inhibition of IN Catalytic Activities IC50 (μM) Strand Transfer
[12] = wild-type IN 200 nM, 7.5 mM MnCl2, read-out: Inhibition of IN Catalytic Activities IC50 (μM) 3′-processing

Row | Structure (SMILES) | IC50 [1, 9] [µM] | IC50 [2, 10] [µM] | IC50 [1, 11] [µM] | IC50 [2, 12] [µM] | also measured
1 | CCOc1cc(/C=C2\C(=O)N(c3nnn[nH]3)N=C2C)cc(Cl)c1OCC [GLD12A4] | – | – | – | – | IC50 [1, 3]: 4 ± 2 µM; IC50 [2, 4]: 7 ± 6 µM
2 | Cc1cc2nc(-c3cc(NC(=O)c4ccc(F)cc4)ccc3O)oc2cc1C [XR16] | – | – | – | – | IC50 [1, 5]: < 100 µM; IC50 [2, 6]: < 100 µM
3 | O=C(O)C(O)C(O)c1nc2cc3ccccc3cc2[nH]1 (stereo not drawn) [GLD20] | – | – | – | – | IC50 [1, 7]: 46 ± 12 µM; IC50 [2, 8]: > 100 µM
4 | O=C(C1=C(O)C(=O)N(c2nc3ccccc3s2)C1c1ccc2c(c1)OCO2)c1ccccc1 (stereo not drawn) [Compound M28A8] | 21 ± 10 | 57 ± 10 | – | – | –
5 | O=C(Nc1ccc(O)c(-c2nc3ccccc3o2)c1)c1ccccc1F [XR19] | – | – | – | – | IC50 [1, 5]: < 100 µM; IC50 [2, 6]: < 100 µM
6 | O=C(CCCN1C(=O)C(=Cc2cccs2)SC1=S)Nc1ccc(O)c(C(=O)O)c1 [Compound X169] | – | – | 35 ± 16 | 44 ± 20 | –
7 | Oc1cccc2ccc(/C=C/c3ccc(-c4cccc(Cl)c4)o3)nc12 [RT29] | – | – | 70 | 30 | –
8 | CCn1cc(C(=O)O)c(=O)c2cnc(N3CCN(C(=S)NC(=O)c4ccc(F)c(F)c4)CC3)nc21 [ROM3A4] | – | – | 59 | 64 | –
9 | O=C(O)c1cccc(-c2ccc(/C=C3\Sc4ccccc4C3=O)o2)c1 [AV15A6] | 24 | 76 | – | – | –
10 | O=C(O)c1cccc(-c2ccc(/C=N/N(c3ccccc3)c3ccccc3)o2)c1 [AV15A27] | 26 ± 12 | 42 ± 24 | – | – | –
11 | COc1ccc(C2C(C(=O)c3ccco3)=C(O)C(=O)N2CCN2CCOCC2)c(OC)c1 (stereo not drawn) [MMC8] | – | – | – | – | IC50 [1, 5]: 395 µM; IC50 [2, 6]: > 1000 µM
12 | COc1ccc(C(=O)Nc2ccc(O)c(-c3nc4ccccc4o3)c2)cc1[N+](=O)[O-] [XR17] | – | – | – | – | IC50 [1, 5]: 7 µM; IC50 [2, 6]: 6 µM
13 | O=C(N/N=C1/C(=O)Nc2ccc(F)cc21)/C(=C/C=C/c1ccccc1)NC(=O)c1ccccc1 [Compound X231] | – | – | – | – | IC50 [1, 5]: 38 µM; IC50 [2, 6]: 60 µM
14 | O=C(CN1C(=O)C(=Cc2ccccc2Cl)SC1=S)Nc1ccc([N+](=O)[O-])cc1O [Compound X193] | – | – | > 100 | > 100 | –
15 | O=C(CSc1nnc(-c2ccccc2O)n1Cc1ccccc1)NNC(=O)c1ccccc1O [AS9A11] | 9 ± 2 | 15 ± 3 | – | – | –
16 | CC(C)Cn1c(=O)c(C(=O)Nc2ccccc2S(N)(=O)=O)c(O)c2ccccc21 [Compound X228] | – | – | 16 | 40 | –
17 | Cn1c(=O)c(C(=O)Nc2ccccc2S(N)(=O)=O)c(O)c2ccccc21 [XR8] | – | – | 39 | 50 | –
18 | O=C(O)c1ccc(-c2ccc(/C=N/Nc3nc(Nc4ccccc4)nc(Nc4ccccc4)n3)o2)cc1O [AV15A28] | > 100 | > 100 | – | – | –
19 | O=C(CCN1C(=O)C(=Cc2ccc3c(c2)OCO3)SC1=S)Nc1ccc(C(=O)O)c(O)c1 [Compound X188] | – | – | 23 ± 13 | 33 ± 23 | –
20 | O=C(N/N=C/c1ccc(-c2ccc(Cl)c(Cl)c2)o1)c1ccccc1O [OT8] | – | – | 14 ± 4 | 31 ± 16 | –
21 | O=C(N/N=C/c1ccc(/C=N/NC(=O)c2cc(O)cc(O)c2)cc1)c1cc(O)cc(O)c1 [Example X218] | – | – | – | – | IC50 [1, 5]: 56 µM; IC50 [2, 6]: 76 µM
22 | CSc1ccc(/C=N/NC(=O)CSc2nnc(-c3ccc(Cl)cc3)n2-c2ccccc2)cc1 [HD39] | > 100 | > 100 | – | – | –
23 | N#Cc1c(-c2ccc(F)cc2)cc(C2CC2)nc1SCCN1C(=O)c2ccccc2C1=O [OT33] | – | – | 95 ± 11 | > 100 | –
24 | O=C(Nc1ncccc1O)c1c(O)c2cccc3c2n(c1=O)CCC3 [LM11] | – | – | 15 | 56 | –

Row | Structure (SMILES) | IC50 [1, 9] [µM] | IC50 [2, 10] [µM] | IC50 [1, 11] [µM] | IC50 [2, 12] [µM] | also measured
25 | Cc1ccc2nc(-c3ccc(NC(=O)/C=C/C(=O)O)cc3)sc2c1 [GLD28] | – | – | – | – | IC50 [1, 7]: 23 ± 4 µM; IC50 [2, 8]: 48 ± 19 µM
26 | O=C(O)CSc1nc(-c2cccs2)cc(C(F)(F)F)n1 [GLD2A10] | > 100 | > 100 | – | – | –
27 | O=C(O)CSc1nc(Nc2ccccc2)nc(N2CCOCC2)n1 [GLD2A18] | > 100 | > 100 | – | – | –
28 | Cc1cc(C)nc(SCc2nnc(SCC(=O)NNC(=O)c3ccccc3O)n2C)n1 [AS9A5] | < 100 | < 100 | – | – | –
29 | O=C(O)CCCCCN1C(=O)C(O)=C(C(=O)c2ccc(Cl)cc2)C1c1ccc2c(c1)OCO2 (stereo not drawn) [Compound T38] | 20 | 25 | – | – | IC50 [1, 5]: 20 µM; IC50 [2, 6]: 25 µM
30 | Cc1ccc(-n2c(SCC(=O)NNC(=O)c3ccccc3O)nnc2-c2ccccc2)cc1 [AS120] | 12 ± 8 | 23 ± 6 | – | – | –
31 | O=C(O)CSc1nnc(-c2ccco2)c(-c2ccco2)n1 [GLD2] | 5 ± 3 | 18 ± 4 | – | – | –
32 | O=C(O)CN1C(=O)/C(=C2\SC(=S)N(C(Cc3ccccc3)C(=O)O)C2=O)c2ccccc21 (stereo not drawn) [GLD31] | – | – | – | – | IC50 [1, 7]: 66 ± 17 µM; IC50 [2, 8]: 92 ± 17 µM
33 | O=C(O)c1cc(-c2ccc(/C=N/Nc3nc4nonc4nc3Nc3ccc(F)cc3)o2)ccc1Cl [AV15A15] | 6.5 ± 1 | 12 ± 6 | – | – | –
34 | COc1ccc(C=C2SC(=S)N(CCC(=O)Nc3cccc(C(=O)O)c3)C2=O)cc1 [Compound X26] | – | – | > 100 | > 100 | –
35 | CCOc1cc(/C=C2\C(=O)N(c3nnn[nH]3)N=C2C)ccc1OC [GLD12A3] | – | – | – | – | IC50 [1, 3]: 59 ± 13 µM; IC50 [2, 4]: 75 ± 28 µM
36 | CC1=C(C#N)c2nc(N)c(C#N)c(C)c2/C1=C/c1ccc(-c2ccc(F)cc2)o1 [AV15A48] | > 100 | > 100 | – | – | –
37 | CCc1ccc(C=C2SC(=S)N(CC(=O)Nc3cccc(C(=O)O)c3)C2=O)cc1 [Compound X91] | – | – | > 100 | > 100 | –
38 | CC1=C(C#N)c2nc(N)c(C#N)c(C)c2/C1=C/c1ccc(-c2ccccc2C(=O)O)o1 [AV15A54] | > 100 | > 100 | – | – | –
39 | O=C(O)CSc1nc(-c2ccccc2)cc(C(F)(F)F)n1 [GLD2A4] | > 100 | > 100 | – | – | –
40 | Cc1ccc(/C=C2\SC(=S)N(CCC(=O)Nc3ccc(S(=O)(=O)Nc4nccs4)cc3)C2=O)cc1 [Compound X124] | – | – | 44 ± 16 | 83 ± 21 | –
41 | Cc1ccc(C(=O)O)cc1NC(=O)CSc1nc2ccccc2s1 [GLD59] | – | – | – | – | IC50 [1, 7]: 17 ± 2 µM; IC50 [2, 8]: 63 ± 22 µM
42 | Cc1cccc(Nc2nc3nonc3nc2N/N=C/c2ccc(-c3cccc(C(=O)O)c3)o2)c1 [AV15A21] | 7 ± 2 | 10 ± 5 | – | – | –
43 | CCCCCn1c(=O)c(C(=O)Nc2ccccc2S(N)(=O)=O)c(O)c2ccccc21 [XR13] | – | – | 13 | 11 | –
44 | CCn1c(=O)c(C(=O)Nc2ccccc2O)c(O)c2ccccc21 [XR10] | – | – | 32 | 72 | –
45 | Cc1ccc(C(=O)N/C(=C/c2ccc(-c3ccc(Cl)cc3Cl)o2)C(=O)NCCCO)cc1 [Example X280] | – | – | – | – | IC50 [1, 5]: 85 µM; IC50 [2, 6]: > 1000 µM
46 | O=C(Nc1ccc(O)c(-c2nc3cc(Cl)ccc3o2)c1)c1cccnc1 [Compound X255] | – | – | – | – | IC50 [1, 5]: 10 µM; IC50 [2, 6]: 61 µM
47 | CCOC(=O)c1c(-c2ccccc2)csc1NC(NC(=O)c1ccco1)C(=O)c1ccc(C)cc1 (stereo not drawn) [Example X88] | – | – | – | – | IC50 [1, 5]: 79 µM; IC50 [2, 6]: > 100 µM
